Results as given in patent US9839618B2, “Compositions and methods relating to proliferative diseases” (The Penn State Research Foundation, priority 2010, dated 2017).
Where two headings read alike, the source gives them in different places.

Legend:
[1] = tested on: Breast (MCF-7) cancer cell line; test: MTS assay viability IC50, MCF-7; assay type: cell-based; conditions: Homo sapiens, MCF7; Table 5
Experimental: (§1) Dehydroabietylamine, its N-substituted derivatives and the corresponding dihydroabietylamine and its N-substituted derivatives are tested for their capability to inhibit cell growth of cancer cell lines, including melanoma (UACC 903, 1205Lu), breast (MCF-7), fibrosarcoma (HT-1080), colon (Caco-2), and prostate (PC-3) cancer cell lines. Viability and IC50 of normal human fibroblasts and cell lines from melanoma and other malignancies following treatment with all the agents are measured using the MTS assay (Promega, Madison, Wis.). Human fibroblast FF2441 cells, metastatic melanoma cell lines 1205 Lu and UACC 903 as well as cancer cell lines representing sarcoma (HT-1080), prostate (PC-3, LNCaP), breast (MCF-7) and lung (A-549) are maintained in DMEM (Invitrogen, Carlsbad, Calif.) supplemented with 10% FBS (Hyclone, Logan, Utah) in a 5% CO2 atmosphere, humidified 37° C. incubator. 5×10^3 cells per well in 100 μL of media are plated and grown in a 96-well plate for 48 to 72 h and treated with either DMSO vehicle control or 0.62 to 40 μmol/L for 24, 48 or 72 h. IC50 values for each compound in […] for respective cell lines are measured from three independent experiments using GraphPad Prism version 4.01 (GraphPad Software, La Jolla, Calif.). FIG. 52 is a graph showing IC50 values for leelamine and compounds 4a, 4b and 5a in treated fibroblasts (FF2441) compared to melanoma cells. Selectivity ratio here is defined as ratio of activity against fibroblasts compared to activity against melanoma cells. Leelamine is relatively selective with a ratio of >6 and >4 for UACC903 and 1205Lu melanoma cells. The selectivity ratio of compound 4a is ˜4 and ˜3 for UACC903 and 1205Lu and for compound 4b is ˜4 for both cell lines. The selectivity ratio of compound 5a is ˜4 for UACC903 and >2 for 1205Lu cells.

[2] = tested on: FF2441 normal human fibroblasts; test: MTS assay viability IC50, normal fibroblasts; assay type: cell-based
Experimental: The efficacy of leelamine to kill other cancer types is measured and the IC50 for cell lines derived from carcinomas of breast, lung, prostate, connective tissue, pancreas and colon determined. The MTS assay as described in Sharma, A. et al., Clin Cancer Res, 2009, 15:1674-85; and Madhunapantula, S. V. et al., Mol Cancer Ther, 2008, 7:1297-308 is used to establish the IC50 at 24, 48 and 72 hours of leelamine treatment for normal human epidermal melanocytes (FOM103), normal skin fibroblast cells (FF2441), normal skin keratinocytes (HFK) and compared to melanocytic lesion cells from the radial-, vertical- and metastatic melanoma stages. 5×10^3 cells per well in 100 μL of media are plated and grown in a 96-well plate for 48 to 72 hours and treated with either DMSO vehicle control or 0.62 to 40 μmol/L of leelamine for 24, 48 or 72 hours. IC50 values for each compound in μmol/L for respective cell lines are measured from three independent experiments using GraphPad Prism version 4.01 (GraphPad Software, La Jolla, Calif.). Leelamine is found to be not toxic to normal cells and effective to kill melanoma cells as well as non-melanoma cancer cells as shown in Table 1 in FIG. 20. Leelamine is 3- to 4-fold more specific at killing metastatic melanoma than normal cells, supporting cancer therapeutic utility at concentrations<2 μmol/L.
5×10^3 cells per well in 100 μL of media are plated and grown in a 96-well plate for 48 to 72 hours and treated with either DMSO vehicle control or 0.62 to 40 μmol/L of leelamine for 24, 48 or 72 hours. IC50 values for each compound in μmol/L for respective cell lines are measured from three independent experiments using GraphPad Prism version 4.01 (GraphPad Software, La Jolla, Calif.). […]
as §1

[3] = Homo sapiens, FF2441, Table 5, read-out: IC50 Fibroblast FF2441

Row | Compound | IC50 [1] [µM] | IC50 [2, 3] [µM] | IC50 ([2]; Homo sapiens, FF2441, Table 4, read-out: IC50 Normal fibroblast FF2441) [µM] | IC50 ([2]; Table 6, read-out: IC50 Normal fibroblast FF2441) [µM]
1 | CC(C)c1ccc2c(c1)CCC1[C@](C)(CNC(=O)C(F)(F)F)CCC[C@]21C (stereo partly drawn) [Compound 5a, N-{[(1R,4aS)-1,4a-dimethyl-7-(propan-2-yl)-1,2,3,4,4a,9,10,10a-octahydrophenanthren-1-yl]methyl}-2,2,2-trifluoroacetamide] | 4.39 ± 0.71 | 5.17 ± 0.02 |  | 
2 | CC(C)c1ccc2c(c1)CCC1[C@](C)(CN)CCC[C@]21C (stereo partly drawn) [Leelamine, [(1R,4aS)-1,4a-dimethyl-7-(propan-2-yl)-1,2,3,4,4a,9,10,10a-octahydrophenanthren-1-yl]methanamine] | 6.42 ± 0.52 | 8.91 ± 0.57 |  | 
3 | CC(C)C1=CC2=CCC3[C@](C)(CN)CCC[C@]3(C)C2CC1 (stereo partly drawn) [Compound 4a, {[(1R,4aR)-1,4a-dimethyl-7-(propan-2-yl)-1,2,3,4,4a,4b,5,6,10,10a-decahydrophenanthren-1-yl]methyl}amine] | 8.69 ± 1.81 | 8.33 ± 0.43 |  | 
4 | CC(C)C1=CC2=CCC3[C@](C)(CCC[C@@]3(C)C(=O)O)C2CC1 (stereo partly drawn) [Abietic acid, (1R,4aR)-1,4a-dimethyl-7-(propan-2-yl)-1,2,3,4,4a,4b,5,6,10,10a-decahydrophenanthrene-1-carboxylic acid, reference compound] | > 100 | > 100 | > 100 | > 100
